Consider 38 compounds from patent publication US20240279236A1, “COMPOUNDS AND METHODS OF TREATING TUBERCULOSIS” (Fimbrion Therapeutics, Inc., priority 2021, published 2024).

pIC50: −log10 of the molar value. Bounds are passed on as bounds.

The test system of this experiment is WT Mtb Erdman strain. Put plainly: Microplate Alamar Blue Assay (MABA), Mtb growth inhibition. The following applies: Mycobacterium tuberculosis, ERDMAN, 168 h, Middlebrook 7H9 media, 7 days at 37° C. in 5% CO2. Format: cell-based, Mycobacterium tuberculosis. For orientation: The colour change of resazurin is a common sign of viable cells or microbes.
Take `CCc1nc(NCCc2ccc3ccccc3c2)c2cc(C)sc2n1` [Example 10, 2-ethyl-6-methyl-N-(2-(naphthalen-2-yl)ethyl)thieno[2,3-d]pyrimidin-4-amine]: the pIC50 is 6.35.
With `CCc1nc(NCCCN2CCCc3ccccc32)c2cc(C)sc2n1` [Example 192, N-(3-(3,4-dihydroquinolin-1(2H)-yl)propyl)-2-ethyl-6-methylthieno[2,3-d]pyrimidin-4-amine], the negative-log IC50 (pIC50) is 6.03.
For `Cc1cc2c(NCCCc3ccccc3)nc(-c3ccc(F)cc3)nc2s1` [Example 126, 2-(4-fluorophenyl)-6-methyl-N-(3-phenylpropyl)thieno [2,3-d]pyrimidin-4-amine] the value was 5.59.
`Cc1cc2c(NCCCc3ccc(-c4ccc5c(ccn5C)c4)cc3)nc(-c3ccoc3)nc2s1` [Example 329, 2-(furan-3-yl)-6-methyl-N-(3-[4-(1-methyl-1H-indol-5-yl)phenyl]propyl) thieno[2,3-d]pyrimidin-4-amine] showed a negative logarithm of the IC50 (pIC50) of 7.47. This pIC50 lies 1.88 log units higher than the previous one.
As for `Cc1cc2c(NCCCc3ccc(-c4ccc(OC(F)(F)F)cc4)cc3)nc(N3CCC3)nc2s1` [Example 533, 2-(azetidin-1-yl)-6-methyl-N-(3-(4′-(trifluoromethoxy)-[1,1′-biphenyl]-4-yl)propyl)thieno[2,3-d]pyrimidin-4-amine], the figure is 6.03; as for `Cc1cc2c(NCCCc3ccccc3)nc(N3CCC(F)(F)C3)nc2s1` [Example 513, 2-(3,3-difluoropyrrolidin-1-yl)-6-methyl-N-(3-phenylpropyl)thieno[2,3-d]pyrimidin-4-amine], 6.64; as for `Fc1ccc([C@@H]2C[C@H]2Nc2nc(-c3ccccn3)nc3sc(Cl)cc23)cc1F` [Example 32, 6-chloro-N-((1R,2S)-2-(3,4-difluorophenyl)cyclopropyl)-2-(pyridin-2-yl)thieno[2,3-d]pyrimidin-4-amine], 5.46.
For the compound `Cc1nc2c(NCCCc3ccccc3)nc(-c3ccncn3)nc2s1` [Example 149, 2-methyl-N-(3-phenylpropyl)-5-(pyrimidin-4-yl)thiazolo[5,4-d]pyrimidin-7-amine], the pIC50 is 5.70.
As for `Cc1nc2c(NCCCc3ccc(-c4cnc(F)cn4)cc3)nc(Cl)nc2s1` [Example 470, 5-chloro-N-(3-(4-(5-fluoropyrazin-2-yl)phenyl)propyl)-2-methylthiazolo[5,4-d]pyrimidin-7-amine], the figure is 6.48; as for `Cc1cc2c(NCCCc3ccccc3)nc(-c3ccon3)nc2s1` [Example 110, 2-(isoxazol-3-yl)-6-methyl-N-(3-phenylpropyl)thieno [2,3-d]pyrimidin-4-amine], 7.26; as for `CCc1nc(NCCc2ccc(-c3ccccc3)cc2)c2cc(C)sc2n1` [Example 26, N-(2-([1,1′-biphenyl]-4-yl)ethyl)-2-ethyl-6-methylthieno[2,3-d]pyrimidin-4-amine], 5.92.
`Cc1cc2c(NCCCc3ccc(-c4ccc5nonc5c4)cc3)nc(-c3ccoc3)nc2s1` [Example 343, N-(3-[4-(2,1,3-benzoxadiazol-5-yl)phenyl]propyl)-2-(furan-3-yl)-6-methylthieno[2,3-d]pyrimidin-4-amine]: the pIC50 was more than 7.82.
As for `Cc1cc2c(NCCCc3ccccc3)nc(N(C)C)nc2s1` [Example 77, N2,N2,6-trimethyl-N4-(3-phenylpropyl)thieno [2,3-d]pyrimidine-2,4-diamine], the figure is 6.85.
`CCc1nc(NCCCc2ccc(-c3c(Cl)cccc3Cl)cc2)c2cc(C)sc2n1` [Example 307, N-(3-(2′,6′-dichloro-[1,1′-biphenyl]-4-yl)propyl)-2-ethyl-6-methylthieno[2,3-d]pyrimidin-4-amine] showed a pIC50 of 6.08. Against the preceding compound, the pIC50 is 0.77 log units lower.
For `CCSc1nc(NCCCc2ccccc2)c2cc(C)sc2n1` [Example 76, 2-(ethylthio)-6-methyl-N-(3-phenylpropyl)thieno [2,3-d]pyrimidin-4-amine] the value was 7.04; for `Cc1cc2c(NCCCc3ccc(-n4cccc4)cc3)nc(-c3ccoc3)nc2s1` [Example 604, 2-(furan-3-yl)-6-methyl-N-(3-[4-(1H-pyrrol-1-yl)phenyl]propyl)thieno[2,3-d]pyrimidin-4-amine], 7.55.
As for `Cc1cc2c(NCCCc3ccc(-c4ccc(F)nc4)cc3)nc(-c3ccoc3)nc2s1` [Example 384, N-(3-[4-(6-fluoropyridin-3-yl)phenyl]propyl)-2-(furan-3-yl)-6-methylthieno[2,3-d]pyrimidin-4-amine], the figure is 8.22; as for `Cc1cc(-c2nc(NCCCc3ccccc3)c3cc(C)sc3n2)no1` [Example 111, 6-methyl-2-(5-methylisoxazol-3-yl)-N-(3-phenylpropyl)thieno [2,3-d]pyrimidin-4-amin], 6.68.
`Cc1cc2c(NCCCc3ccc(Cl)cc3)nc(C(F)(F)F)nc2s1` [Example 245, N-(3-(4-chlorophenyl)propyl)-6-methyl-2-(trifluoromethyl) thieno[2,3-d] pyrimidin-4-amine] had a pIC50 of 5.74.
For `Cc1cc2c(N[C@@H]3C[C@H]3c3ccc(F)c(F)c3)nc(-c3ccc(F)cn3)nc2s1` [Example 46, N-((1R,2S)-2-(3,4-difluorophenyl)cyclopropyl)-2-(5-fluoropyridin-2-yl)-6-methylthieno[2,3-d]pyrimidin-4-amine] the value was 5.66; for `Cc1cc2c(NCCCc3ccc(-c4ccc(F)cc4)cc3)nc(-c3ccoc3)nc2s1` [Example 322, N-(3-(4′-fluoro-[1,1′-biphenyl]-4-yl)propyl)-2-(furan-3-yl)-6-methylthieno[2,3-d]pyrimidin-4-amine], 8.22.
As for `Cc1cc2c(NCCCc3ccc(-c4ccc(C#N)cc4)cc3)nc(Cl)nc2s1` [Example 439, 4′-(3-((2-chloro-6-methylthieno[2,3-d]pyrimidin-4-yl)amino)propyl)-[1,1′-biphenyl]-4-carbonitrile], the pIC50 is 7.03.
Consider `CNc1nc(NCCCc2ccc(-c3ccc(OC(F)(F)F)cc3)cc2)c2cc(C)sc2n1` [Example 532, N2,6-dimethyl-N4-(3-(4′-(trifluoromethoxy)-[1,1′-biphenyl]-4-yl)propyl)thieno[2,3-d]pyrimidine-2,4-diamine], for which the pIC50 was 7.31.
For `Cc1cc2c(N[C@@H]3C[C@H]3c3ccc(F)cc3)nc(C(F)(F)F)nc2s1` [Example 181, N-((1R,2S)-2-(4-fluorophenyl)cyclopropyl)-6-methyl-2-(trifluoromethyl) thieno[2,3-d] pyrimidin-4-amine] the value was 5.89; for `Cc1cc2c(NCCCc3ccc(-c4ccc(OC(F)(F)F)cc4)cc3)nc(-c3cnc[nH]3)nc2s1` [Example 442, 2-(1H-imidazol-5-yl)-6-methyl-N-(3-(4′-(trifluoromethoxy)-[1,1′-biphenyl]-4-yl)propyl)thieno[2,3-d]pyrimidin-4-amine], 6.64.
In turn, `CCc1nc(NCCc2ccc(Cl)cc2)c2cc(C)sc2n1` [Example 7, N-(4-chlorophenethyl)-2-ethyl-6-methylthieno[2,3-d]pyrimidin-4-amine] showed a negative-log IC50 (pIC50) of 5.96.
For `Cc1cc2c(NCCCn3ccc4ccccc43)nc(C(F)(F)F)nc2s1` [Example 177, N-(3-(1H-indol-1-yl)propyl)-6-methyl-2-(trifluoromethyl) thieno[2,3-d] pyrimidin-4-amine] the value was 5.33.
As for `CCc1nc(NC/C=C/c2ccccc2)c2cc(C)sc2n1` [Example 61, N-cinnamyl-2-ethyl-6-methylthieno[2,3-d]pyrimidin-4-amine], the figure is 7.15.
Compound `CCc1nc(NCCCc2ccc(-c3ccc(Cl)c(Cl)c3)cc2)c2cc(C)sc2n1` [Example 281, N-(3-(3′,4′-dichloro-[1,1′-biphenyl]-4-yl)propyl)-2-ethyl-6-methylthieno[2,3-d]pyrimidin-4-amine] had a negative-log IC50 (pIC50) of 7.36.
On to `CCc1nc(NCCCc2ccccc2)c2cc(CC)sc2n1` [Example 86, 2,6-diethyl-N-(3-phenylpropyl)thieno [2,3-d]pyrimidin-4-amine], for which the negative-log IC50 (pIC50) was less than 5.92.
For the compound `CCc1nc(NCCCc2ccc(F)cc2)c2cc(C)sc2n1` [Example 191, 2-ethyl-N-(3-(4-fluorophenyl)propyl)-6-methylthieno[2,3-d]pyrimidin-4-amine], the pIC50 was 6.44.
Compound `Cc1cc2c(NCCCCc3ccc(-c4ccc(OC(F)(F)F)cc4)cc3)nc(-c3ccoc3)nc2s1` [Example 312, 2-(furan-3-yl)-6-methyl-N-(4-(4′-(trifluoromethoxy)-[1,1′-biphenyl]-4-yl)butyl)thieno [2,3-d]pyrimidin-4-amine] had a negative-log IC50 (pIC50) of 6.42.
As for `Cc1cc2c(N[C@@H]3C[C@H]3c3ccc(F)c(F)c3)nc(-c3ccoc3)nc2s1` [Example 114, N-((1R,2S)-2-(3,4-difluorophenyl)cyclopropyl)-2-(furan-3-yl)-6-methylthieno[2,3-d]pyrimidin-4-amine], the negative-log IC50 (pIC50) was 6.21.
The compound `Cc1cccc(-c2nc(N[C@@H]3C[C@H]3c3ccc(F)c(F)c3)c3cc(C)sc3n2)n1` [Example 89, N-((1R,2S)-2-(3,4-difluorophenyl)cyclopropyl)-6-methyl-2-(6-methylpyridin-2-yl)thieno[2,3-d]pyrimidin-4-amine] showed a negative logarithm of the IC50 (pIC50) of less than 5.00.
The compound `CCc1nc(NCCCc2ccc(OC(F)(F)F)c(C)c2)c2cc(C)sc2n1` [Example 136, 2-ethyl-6-methyl-N-(3-(3-methyl-4-(trifluoromethoxy)phenyl)propyl)thieno [2,3-d]pyrimidin-4-amine] showed a pIC50 of 6.16.
As for `Cc1cc2c(NCCCc3ccccc3)nc(C(C)(C)N)nc2s1` [Example 73, 2-(2-aminopropan-2-yl)-6-methyl-N-(3-phenylpropyl)thieno [2,3-d]pyrimidin-4-amine], the figure is less than 5.00; as for `Cc1cc2c(N[C@@H]3C[C@H]3c3ccc(F)c(F)c3)nc(C3CC3)nc2s1` [Example 43, 2-cyclopropyl-N-((1R,2S)-2-(3,4-difluorophenyl)cyclopropyl)-6-methylthieno[2,3-d]pyrimidin-4-amine], 5.62.
As for `Cc1cc2c(NCCCc3ccc(-c4ccc(OC(F)(F)F)cc4)cc3F)nc(-c3ccoc3)nc2s1` [Example 313, N-(3-(3-fluoro-(trifluoromethoxy)-[1,1′-biphenyl]-4-′-yl)propyl)-2-(furan-3-yl)-6-methylthieno[2,3-d]pyrimidin-4-amine], the negative logarithm of the IC50 (pIC50) was 7.30.

One may read the pIC50 as the negative decadic logarithm of the IC50, by convention in mol/L. Read a low pIC50 as a large IC50.
